In patent US8293917B2, “Pyrazole compounds as CCR1 antagonists” (Boehringer Ingelheim International GmbH, priority 2008, dated 2012) one finds IC50 data, which are given here for 24 molecules.

pIC50: −log10 of the molar value. Where “and” joins values, the source holds several entries; their conditions need not be identical. Equal entries are not always repeated.

In the assay the target is T1, CCR1 (Homo sapiens, UniProt P32246).
T1 construct: host or cells: non-adherent cells
T1 sequence (P32246 1-355): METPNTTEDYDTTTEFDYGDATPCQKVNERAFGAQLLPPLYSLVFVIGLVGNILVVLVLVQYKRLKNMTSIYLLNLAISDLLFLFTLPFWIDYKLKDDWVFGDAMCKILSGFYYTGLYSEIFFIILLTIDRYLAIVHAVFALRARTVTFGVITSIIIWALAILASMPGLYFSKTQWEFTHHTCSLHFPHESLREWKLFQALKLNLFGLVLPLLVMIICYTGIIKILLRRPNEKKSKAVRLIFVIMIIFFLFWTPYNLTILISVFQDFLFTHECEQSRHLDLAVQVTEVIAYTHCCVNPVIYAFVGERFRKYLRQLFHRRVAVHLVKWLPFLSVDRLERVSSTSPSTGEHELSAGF
Briefly: functional cellular assay measuring calcium flux in response to MIP1α in CCR1-transfected cells (Method A or Method B). It counts as cell-based. To be noted: cells stably expressing recombinant CCR1 and G-alpha-16; MIP-1alpha added at EC80; method (A: FLIPR TETRA, B: FDSS6000) not stated per compound. The protocol: Compounds are assessed for the ability to block the interaction of CCR1 and its ligands in a functional cellular assay measuring calcium flux in response to MIP1α in CCR1-transfected cells.
Method A: Non-adherent cells purchased from Chemicon Corporation (HTS005C), stably expressing recombinant CCR1 and G-alpha-16 are grown in RPMI 1640 medium (Mediatech 10-080-CM) supplemented with 10% heat-inactivated FBS, 0.4 mg/mL Geneticin and penicillin/streptomycin. On the day of the assay, the cells are transferred to a beaker and dye-loaded in bulk using a Fluo-4 NW Calcium Assay Kit with probenecid (Invitrogen F36205) at 0.8E6 cells/mL for 1 hour at room temperature. After 1 hour, they are seeded in a 384-well tissue culture-treated plate at a density of 20,000 cells/well. Appropriately diluted test compound is added to the well to achieve a top concentration of 3,000 nM (diluted 3-fold with 10 doses total). The final concentration of DMSO is 1%. The buffer is HBSS (Invitrogen 14025) with 20 mM HEPES at pH 7.4. The cells are allowed to incubate 1 hour in the dark at room temperature. The plates are transferred to the FLIPR TETRA where MIP-1alpha in 1% BSA is added at the EC80 final concentration. Wells +/−MIP-1alpha containing diluted DMSO instead of compound serve as the controls. Intracellular calcium flux is recorded on the FLIPR TETRA, using excitation at 470/495 nm and emission at 515/575 nm. Data are analyzed using Activity Base software.
Method B: Non-adherent cells purchased from Chemicon Corporation (HTS005C), stably expressing recombinant CCR1 and G-alpha-16 are grown in RPMI 1640 medium (Mediatech 10-080-CM) supplemented with 10% FBS, 0.4 mg/mL Geneticin and penicillin/streptomycin. On the day of the assay, the cells are loaded with Calcium 4 dye (Molecular Devices R7448) with Probenecid (Invitrogen P346400) at 8E5 cells/mL for 1 hour at room temperature. After 1 hour, they are seeded in a 384-well tissue culture-treated plate at a density of 20,000 cells/well. Appropriately diluted test compound is added to the well to achieve a top concentration of 3,000 nM (diluted 4-fold with 10 doses total). The final concentration of DMSO is 1%. The buffer is HBSS (Invitrogen 14025) with 20 mM HEPES at pH 7.4. The cells incubate 30 minutes at 37 C and then 30 minutes at room temperature. The plates are transferred to the HAMAMATSU FDSS6000 where MIP-1alpha in 1% BSA is added at the EC80 final concentration. All plates must be read within 4 hours of the start of dye-loading. Wells +/−MIP-1alpha containing diluted DMSO instead of compound serve as the controls. Data are analyzed using Activity Base software.
For orientation: A change in cytosolic calcium serves as a functional read-out for many receptors and channels.
Broadly, the pIC50 is the negative decadic logarithm of the IC50, by convention in mol/L. For `CCCC(NC(=O)c1cnn(-c2ccc(Cl)cc2)c1C)c1cncc(S(=O)(=O)N(C)C)c1` (stereo not drawn) [1-(4-Chloro-phenyl)-5-methyl-1H-pyrazole-4-carboxylic acid [1-(5-dimethylsulfamoyl-pyridin-3-yl)-butyl]-amide], the pIC50 is 8.31. On to `CCCC(NC(=O)c1cnn(-c2ccc(Cl)cc2)c1C)c1cncc(S(=O)(=O)CC)c1` (stereo not drawn) [1-(4-Chloro-phenyl)-5-methyl-1H-pyrazole-4-carboxylic acid [1-(5-ethanesulfonyl-pyridin-3-yl)-butyl]-amide], for which the negative logarithm of the IC50 (pIC50) is 7.03. Take `CCCC(NC(=O)c1cnn(-c2ccc(Cl)cc2)c1C)c1cncc(S(C)(=O)=O)c1` (stereo not drawn) [1-(4-Chloro-phenyl)-5-methyl-1H-pyrazole-4-carboxylic acid [1-(5-methanesulfonyl-pyridin-3-yl)-butyl]-amide]: the pIC50 is 7.82. `CCCC(NC(=O)c1cnn(-c2ccc(Cl)cc2)c1C)c1cncc(S(=O)(=O)NC)c1` (stereo not drawn) [1-(4-Chloro-phenyl)-5-methyl-1H-pyrazole-4-carboxylic acid [1-(5-methylsulfamoyl-pyridin-3-yl)-butyl]-amide]: the negative-log IC50 (pIC50) is 8.39. As for `CCCC(NC(=O)c1cnn(-c2ccc(Cl)cc2)c1C)c1cncc(S(N)(=O)=O)c1` (stereo not drawn) [1-(4-Chloro-phenyl)-5-methyl-1H-pyrazole-4-carboxylic acid [1-(5-sulfamoyl-pyridin-3-yl)-butyl]-amide], the pIC50 is 7.51 and 7.46. For the molecule `CCCC(NC(=O)c1cnn(-c2ccc(Cl)cc2)c1C)c1ccc(S(=O)(=O)C2CC2)nc1` (stereo not drawn) [1-(4-Chloro-phenyl)-5-methyl-1H-pyrazole-4-carboxylic acid [1-(6-cyclopropanesulfonyl-pyridin-3-yl)-butyl]-amide], the pIC50 was 7.28. For the molecule `CCCC(NC(=O)c1cnn(-c2ccc(Cl)cc2)c1C)c1ccc(S(=O)(=O)N(C)C)nc1` (stereo not drawn) [1-(4-Chloro-phenyl)-5-methyl-1H-pyrazole-4-carboxylic acid [1-(6-dimethylsulfamoyl-pyridin-3-yl)-butyl]-amide], the pIC50 was 7.92. As for `CCCC(NC(=O)c1cnn(-c2ccc(Cl)cc2)c1C)c1ccc(S(=O)(=O)CC)nc1` (stereo not drawn) [1-(4-Chloro-phenyl)-5-methyl-1H-pyrazole-4-carboxylic acid [1-(6-ethanesulfonyl-pyridin-3-yl)-butyl]-amide], the pIC50 was 7.22. The same measure for `CCCC(NC(=O)c1cnn(-c2ccc(Cl)cc2)c1C)c1ccc(S(=O)(=O)NC)nc1` (stereo not drawn) [1-(4-Chloro-phenyl)-5-methyl-1H-pyrazole-4-carboxylic acid [1-(6-methylsulfamoyl-pyridin-3-yl)-butyl]-amide]: 8.20. As for `CC[C@H](NC(=O)c1cnn(-c2ccc(Cl)cc2)c1C)c1ccnc(S(C)(=O)=O)c1` [1-(4-Chloro-phenyl)-5-methyl-1H-pyrazole-4-carboxylic acid [(S)-1-(2-methanesulfonyl-pyridin-4-yl)-propyl]-amide], the negative logarithm of the IC50 (pIC50) was 7.54. Turning to `CC[C@H](NC(=O)c1cnn(-c2ccc(Cl)cc2)c1C)c1cnc(S(C)(=O)=O)s1` [1-(4-Chloro-phenyl)-5-methyl-1H-pyrazole-4-carboxylic acid [(S)-1-(2-methanesulfonyl-thiazol-5-yl)-propyl]-amide], the negative-log IC50 (pIC50) was 7.24. Regarding `CC[C@H](NC(=O)c1cnn(-c2ccc(Cl)cc2)c1C)c1ccnc(S(=O)(=O)NC)c1` [1-(4-Chloro-phenyl)-5-methyl-1H-pyrazole-4-carboxylic acid [(S)-1-(2-methylsulfamoyl-pyridin-4-yl)-propyl]-amide], the pIC50 is 7.72. Regarding `CCC[C@H](NC(=O)c1cnn(-c2ccc(Cl)cc2)c1C)c1cccc(Br)c1` [1-(4-Chloro-phenyl)-5-methyl-1H-pyrazole-4-carboxylic acid [(S)-1-(3-bromo-phenyl)-butyl]-amide], the pIC50 is 7.55.

Consider `C=CCCC[C@H](NC(=O)c1cnn(-c2ccc(Cl)cc2)c1C)c1cccc(C(F)(F)F)c1` [1-(4-Chloro-phenyl)-5-methyl-1H-pyrazole-4-carboxylic acid [(S)-1-(3-trifluoromethyl-phenyl)-hex-5-enyl]-amide], for which the pIC50 is 7.52. Consider `CCC[C@H](NC(=O)c1cnn(-c2ccc(Cl)cc2)c1C)c1ccc(F)c(C(F)(F)F)c1` [1-(4-Chloro-phenyl)-5-methyl-1H-pyrazole-4-carboxylic acid [(S)-1-(4-fluoro-3-trifluoromethyl-phenyl)-butyl]-amide], for which the pIC50 was 8.00. Turning to `CC[C@H](NC(=O)c1cnn(-c2ccc(Cl)cc2)c1C)c1ccc(F)c(C(F)(F)F)c1` [1-(4-Chloro-phenyl)-5-methyl-1H-pyrazole-4-carboxylic acid [(S)-1-(4-fluoro-3-trifluoromethyl-phenyl)-propyl]-amide], the pIC50 is 7.89.

`CC[C@H](NC(=O)c1cnn(-c2ccc(Cl)cc2)c1C)c1cncc(Br)c1` [1-(4-Chloro-phenyl)-5-methyl-1H-pyrazole-4-carboxylic acid [(S)-1-(5-bromo-pyridin-3-yl)-propyl]-amide]: the pIC50 is 7.70. In the case of `CCCC(NC(=O)c1cnn(-c2ccc(Cl)cc2)c1C)c1cncc(S(=O)(=O)C(C)C)c1` (stereo not drawn) [1-(4-Chloro-phenyl)-5-methyl-1H-pyrazole-4-carboxylic acid {1-[5-(propane-2-sulfonyl)-pyridin-3-yl]-butyl}-amide], the pIC50 was 7.14. Under `CCCC(NC(=O)c1cnn(-c2ccc(Cl)cc2)c1C)c1ccc(S(=O)(=O)NCCO)nc1` (stereo not drawn) [1-(4-Chloro-phenyl)-5-methyl-1H-pyrazole-4-carboxylic acid {1-[6-(2-hydroxy-ethylsulfamoyl)-pyridin-3-yl]-butyl}-amide] stands 7.01.

For the molecule `CCCC(NC(=O)c1cnn(-c2ccc(Cl)cc2)c1C)c1ccc(S(=O)(=O)CCCO)nc1` (stereo not drawn) [1-(4-Chloro-phenyl)-5-methyl-1H-pyrazole-4-carboxylic acid {1-[6-(3-hydroxy-propane-1-sulfonyl)-pyridin-3-yl]-butyl}-amide], the pIC50 is 7.07. Regarding `CCCC(NC(=O)c1cnn(-c2ccc(Cl)cc2)c1C)c1ccc(S(=O)(=O)NC2CCOCC2)nc1` (stereo not drawn) [1-(4-Chloro-phenyl)-5-methyl-1H-pyrazole-4-carboxylic acid {1-[6-(tetrahydro-pyran-4-ylsulfamoyl)-pyridin-3-yl]-butyl}-amide], the pIC50 was 7.39.

On to `CCC[C@H](NC(=O)c1cnn(-c2ccc(Cl)cc2)c1CNC)c1cccc(C(F)(F)F)c1` [1-(4-Chloro-phenyl)-5-methylaminomethyl-1H-pyrazole-4-carboxylic acid [(S)-1-(3-trifluoromethyl-phenyl)-butyl]-amide], for which the pIC50 is 7.01. Consider `CCCC(NC(=O)c1cnn(-c2ccc(Cl)cc2)c1C)c1ccnc(S(=O)(=O)CCC(=O)OC)c1` (stereo not drawn) [3-[4-(1-{[1-(4-Chloro-phenyl)-5-methyl-1H-pyrazole-4-carbonyl]-amino}-butyl)-pyridine-2-sulfonyl]-propionic acid methyl ester], for which the pIC50 was 7.10. For `CCC[C@H](NC(=O)c1cnn(-c2ccc(Cl)cc2)c1CN)c1cccc(C(F)(F)F)c1` [5-Aminomethyl-1-(4-chloro-phenyl)-1H-pyrazole-4-carboxylic acid [(S)-1-(3-trifluoromethyl-phenyl)-butyl]-amide], the negative logarithm of the IC50 (pIC50) was 7.92.
